# Measured values published in patent US6783558B2, “Hair coloring method and composition” (Kao Corporation, priority 2001, dated 2004).
# Legend:
# [1] = Measurement of pKa value by spectrophotometric titration; type: physicochemical; conditions: DMF/water (1/1) solution, 2×10^−5 mol/l, titrated from pH 2 with NaOH, visible ultra-violet absorption spectrum, read-out: pKa value determined
# Method: The dissociative dye represents the dye that can release a proton and be anionic above a certain pH value. The pKa value can be determined by the following method: The sample is dissolved in a solution of a DMF/water (1/1) volume ratio to a final concentration of 2×10^−5 mol/l. After the resulting solution is adjusted to pH 2, using 1.0 mol/l hydrochloric acid, the solution is titrated with aqueous 1.0 mol/l sodium hydroxide solution. Recording the change of the visible ultra-violet absorption spectrum, the inflection point is determined by regression analysis.
# pKa values of the dyestuffs DS-3 to DS-6, DS-7 and DS10 were determined by the following method: The dye was dissolved in a solution of a DMF/water (1/1) volume ratio to a final concentration of 2×10^−5 mol/l. After the resulting solution was adjusted to pH 2, using 1.0 mol/l hydrochloric acid, the solution was titrated with aqueous 1.0 mol/l sodium hydroxide solution. Recording the change of the visible ultra-violet absorption spectrum, the inflection point was determined by regression analysis.
# [2] = Dyeing of undamaged white goat tress with general composition, Examples 7-15; conditions: 0.02 g dyestuff in 10 g general composition (Table 6), 20 mins at 50° C
# Method: the following general composition was prepared for each of pyrazolotriazole direct dyes DS-3, DS-4, DS-6, DS-7 and DS-12 to DS-16. Each composition was applied to one undamaged white goat tress for 20 mins at 50° C. (1 g of tress was covered by 1.5 to 2 g of composition). After 20 mins the tresses were rinsed, shampoo washed and then dried before the colour was assessed.
# [3] = Compatibility with hydrogen peroxide, Examples 18-21; set-up: species or system human; conditions: for Delta a (change in red colour): 0.02 g dyestuff in 10 g, undamaged human blond hair, 20 mins at 50° C; for stability to alkaline peroxide: composition with ammonia and hydrogen peroxide
# Method: The following general compositions in Table 10 were prepared for each of pyrazolotriazole direct dyes DS-4 and DS-6.
# Each composition was applied to one undamaged human blond hair for 20 mins at 50° C. After 20 mins the tresses were rinsed, shampoo washed and then dried before the colour was assessed.
pKa [1],stability to alkaline peroxide [3],SMILES,Colouring Result [2],Delta E [2],L [2],a [2],b [2],Delta a (change in red colour) ([3]; H2O2 3 wt %),Delta a (change in red colour) ([3]; H2O2 None)
3.78,,CC1=Nn2nc(C)nc2/C1=N\c1cc(Cl)c(O)c(Cl)c1 [DS-3],"Bright, intense magenta",81,30,54,−12,,
3.88,stable to alkaline peroxide,Cc1nc2n(n1)N=C(C(C)(C)C)/C2=N/c1cc(Cl)c(O)c(Cl)c1 [DS-4],"Bright, intense magenta",75,38,60,16,39,27
4.34,,CC1=Nn2c(C)nnc2/C1=N\c1cc(Cl)c(O)c(Cl)c1 [DS-5],,,,,,,
,stable to alkaline peroxide,Cc1nnc2n1N=C(C(C)(C)C)/C2=N/c1cc(Cl)c(O)c(Cl)c1 [DS-6],Bright pink,55,57,42,−7,30,15
3.92,,CC(C)c1nc2n(n1)N=C(C(C)(C)C)/C2=N/c1cc(Cl)c(O)c(Cl)c1 [DS-7],Pink,60,50,50,−8,,
3.38,,CC1=Nn2nc(C(C)CN)nc2/C1=N\c1cc(Cl)c(O)c(Cl)c1 (stereo not shown) [DS-10],,,,,,,
,,CSc1nnc2n1N=C(c1ccccc1)/C2=N/c1cc(Cl)c(O)c(Cl)c1 [DS-12],Violet,59,48,29,−26,,
,,CC(C)c1nc2n(n1)N=C(c1ccccc1Cl)/C2=N/c1cc(Cl)c(O)c(Cl)c1 [DS-15],Violet,55,51,33,−17,,
,,CC(C)(C)C1=Nn2nc(-c3ccc(NS(C)(=O)=O)cc3)nc2/C1=N\c1cc(Cl)c(O)c(Cl)c1 [DS-16],Bright pink,52,55,41,−3,,
